A short description of data set [1]: Fourier Transform Infrared spectroscopy of stratum corneum. More on the design: species or system mouse. Conditions: for Absorbance in protein areas, peak position: Table I. On the procedure:
A. Comparisons of normal stratum corneum (from mouse skin) to stratum corneum treated with a 0.09% concentration of papain for 24 hours was performed using Fourier Transform Infrared spectroscopy (FTIR). […] It is postulated that a shift from a random form of protein to the more organized beta sheet structure occurs. The alpha-helix structures of skin protein could be fractionated, uncoiled, or both.
A comparison of symmetric and asymmetric CH stretch bands was then made. These two bands represent lipid structure and would show any changes in the stratum corneum lipids caused by the papain.
B. Azone™ was tested as a permeation enhancer with and without the presence of papain.

Data set [2] is described as follows: Effect of pH on drug penetration through normal untreated hairless mouse skin (Example V A). In kind it is in vitro ADME. Conditions: for P (permeability): mouse.
A short description of data set [3]: Effect of pH on drug penetration through hairless mouse skin pretreated with papain (Example V B). The class given is in vitro ADME. The source says:
B. Effect of pH on drug penetration through hairless mouse
skin Pretreated with sigma papain of concentration 0.093

A short description of data set [4]: Penetration of polypeptides through papain-pretreated mouse skin, SDS-PAGE. The note with it: for fragmentation of diffused polypeptide: diffused through papain treated skin, SDS-PAGE. The class given is in vitro ADME. From the text: After papain skin treatment pursuant to Example III.1 above, polypeptides were diffused through the pretreated mouse skin using the same concentration and pH values for each test. Pure buffer solution was also diffused through the pretreated skin of the mouse to determine if any endogenous proteins diffused into the diffusate.
Comparisons of solutions of non-diffused polypeptides, diffused polypeptides and diffused buffer solutions were made using gel electrophoresis. The system used for these determinations was sodium dodecyl sulfate polyacrylamide gel electrophoresis (SDS-PAGE), a procedure well-known in the art. These comparisons determined if fragmentation of the diffused polypeptide molecules occurred.
A series of polypeptides of various molecular weights were studied.

Data set [5] is described as follows: Effect of non-enzyme components in admixture with papain on penetration of 14C-TEAB (Example IV). Conditions: 14C-TEAB through pretreated skin (n = 1 for components alone, n = 2 combinations, n = 3 papain 0.0465 mg/ml 24 hours).
A further data set can be described thus: in vitro. Conditions: mouse.
The conditions of data set [6]: mouse.
The mark [7] stands for this setting: pH 5.9, sigma papain 0.093 mg/ml for 24 hours.
Setting [8] is: pH 6.6, sigma papain 0.093 mg/ml for 24 hours.
[9] abbreviates: pH 7.4, sigma papain 0.093 mg/ml for 24 hours.
The mark [10] stands for this setting: pH 8.0, sigma papain 0.093 mg/ml for 24 hours.
Setting [11] is: TEAB, pretreated with papain 0.010 mg/0.108 ml (0.093 mg/ml).
Where [12] appears, read: TEAB, pretreated with papain 0.170 mg/0.602 ml (0.278 mg/ml).
Where [13] appears, read: TEAB, pretreated with papain 0.170 mg/0.200 ml ([…]).

Here are results for twelve molecules from patent publication US5534260A, “Percutaneous drug delivery system” (priority 1994, dated 1996).

Where “and” joins values, the source holds several entries; their conditions need not be identical. Equal entries are not always repeated. Entries after “also recorded” stand apart in the source; their conditions may differ. Where two headings read alike, the source gives them in different places.

Usually Papp stands for the rate of passage across a membrane or cell layer, normalised by area and donor concentration. The low end stands for poor permeation, the high end for ready permeation.

Take `CCCCCCCCCCCCN1CCCCCC1=O` [Azone, 1-n-dodecylazacycloheptan-2-one]: the “Absorbance in protein areas, peak position” value came to 1244.5 cm⁻¹ in data set [1] (untreated SC 1244); 1267.4 cm⁻¹ in data set [1] (untreated SC 1267); 1296.6 cm⁻¹ in data set [1] (untreated SC 1295); 1402 cm⁻¹ in data set [1] (untreated SC 1400.5); 1461.8 cm⁻¹ in data set [1] (untreated SC 1456). Besides, the Absorbance in lipid areas, symmetric CH peak position in data set [1] (Table II, untreated 2848.3) was 2850 cm⁻¹. The Absorbance in lipid areas, asymmetric CH peak position in data set [1] (Table II, untreated 2916.5) was 2920 cm⁻¹. Further, in data set [1] (Table III, untreated 8.6), the “Length of the 70% line, symmetric CH” value worked out at 11.4 cm⁻¹. Besides, the “Length of the 70% line, asymmetric CH” value in data set [1] (Table III, untreated 17.5) came out at 27.2 cm⁻¹. The “Asymm CH” value in data set [1] (Table VII, exposed SC) is 2916.5 cm⁻¹. Further, the “Symm CH” value in data set [1] (Table VII, exposed SC) turned out to be 2848.3 cm⁻¹. Further, the “Symm 70% line” value in data set [1] (Table VII, normal SC 8.6) turned out to be 11.4 cm⁻¹. In addition, in data set [1] (Table VII, normal SC 17.5), the “Asymm 70% line” value is 27.2 cm⁻¹. In addition, the “change in lipid structure / CH stretch bands of stratum corneum” value in data set [1] (in words, listed as Azone™) was “lengthening of both symmetric and asymmetric CH stretch lines but did not change their peak positions and 70% line lengthened”. Further, the “change in protein FTIR areas of stratum corneum” value is given as “did not change protein FTIR areas; also recorded: did not significantly effect the protein” in data set [1] (in words, listed as Azone™) and “No significant changes occurred in the protein areas” in data set [1] (in words, listed as azone).

For the molecule `CC(=O)[C@H]1CC[C@H]2[C@@H]3CCC4=CC(=O)CC[C@]4(C)[C@H]3CC[C@]12C` [Progesterone], the “J (flux)” value in data set [2] (pH 5.9) was 2.30 × 10^-7 mg/cm^2 /sec; in data set [2] (pH 6.6), 2.34 × 10^-7 mg/cm^2 /sec; in data set [2] (pH 7.4), 2.34 × 10^-7 mg/cm^2 /sec and 2.92 × 10^-6 mg/cm^2 /sec; in data set [2] (pH 8.0), 3.09 × 10^-6 mg/cm^2 /sec; in data set [3] (setting [7]) it was 2.88 × 10^-7 mg/cm^2 /sec; in data set [3] (setting [8]), 3.51 × 10^-7 mg/cm^2 /sec. In addition, in data set [3] (setting [9]), the “J (flux)” value was 2.73 × 10^-7 mg/cm^2 /sec. The “E (enhancement)” value came out at 1.25 in data set [3] (setting [7]), 1.50 in data set [3] (setting [8]), 1.17 in data set [3] (setting [9]) and 1.17 in data set [3] (setting [10]). Further, the “P (permeability)” value in data set [3] (setting [10]) was 2.89e-07 cm/s and 3.61e-06 cm/s.

For “insulin: Insulin (Regular, Bovine), MW 6,000”, the “fragmentation of diffused polypeptide” value in data set [4] was “determination of molecular fragmentation due to the permeation would be very difficult if not impossible”.

For the molecule `C=CCc1ccccc1OCC(O)CNC(C)C` (stereo not shown) [Alprenolol], the “P (permeability)” value in data set [2] (pH 5.9) was found to be 5.36e-08 cm/s; in data set [2] (pH 7.4), 1.84e-07 cm/s; in data set [2] (pH 8), 2.1e-07 cm/s; in data set [3] (mouse, pH 5.9) it was 1.2e-06 cm/s; in data set [3] (mouse, pH 6.6), 1.33e-06 cm/s; in data set [3] (mouse, pH 7.4), 1.32e-06 cm/s. Further, in data set [3] (mouse, pH 8), the “P (permeability)” value was determined as 1.65e-06 cm/s. Also, the “J (flux)” value in data set [2] (pH 5.9) is reported as 5.36 × 10^-7 mg/cm^2 /sec; in data set [2] (pH 6.6) it was 7.74 × 10^-7 mg/cm^2 /sec; in data set [2] (pH 7.4), 1.84 × 10^-6 mg/cm^2 /sec; in data set [2] (pH 8) it was 2.10 × 10^-6 mg/cm^2 /sec. Further, the “E (enhancement)” value in data set [3] (setting [7]) is listed as 22.39; in data set [3] (setting [8]), 17.18; in data set [3] (setting [9]) it was 7.17; in data set [3] (setting [10]), 7.86.

For the molecule “carbonic anhydrase: Carbonic anhydrase, MW 29,000”, in data set [4], the “fragmentation of diffused polypeptide” value is reported as “fractionated during the permeation process”. Moreover, the “breakdown of molecule on exposure to papain treated skin without diffusion” value in data set [4] (donor solution of the diffusion cell) is reported as “no change or breakdown of the molecule”.

Consider `CCCCCCCC/C=C\CCCCCCCCO` [10% oleyl alcohol, oleyl alcohol], for which, in data set [5], the “J (flux)” value was 1.49 × 10^-4 mg cm^-2 s^-1.

For the molecule lysozyme: Lysozyme, MW 14,400, the “fragmentation of diffused polypeptide” value in data set [4] was “no significant difference in molecular size. The molecule remained intact and did not break apart”.

In the case of `CC[N+](CC)(CC)CC.[Br-]` [TEAB, tetraethylammonium bromide], the “P (permeability)” value (mouse) was found to be 2.54e-08 cm/s. Moreover, the Papp in the data set “in vitro” is 0.00495 ×10⁻⁶ cm/s.

With `CC(=O)OCC[N+](C)(C)C.[Cl-]` [Acetylcholine Chloride, acetylcholine chloride], the “J (flux)” value is 5.83 × 10^-6 mg/cm^2 /sec in data set [2] (pH 5.9); 5.21 × 10^-6 mg/cm^2 /sec in data set [2] (pH 6.6); 6.41 × 10^-6 mg/cm^2 /sec in data set [2] (pH 7.4); 9.32 × 10^-6 mg/cm^2 /sec in data set [2] (pH 8.0); 6.00 × 10^-4 mg/cm^2 /sec in data set [3] (setting [7]); 7.77 × 10^-4 mg/cm^2 /sec in data set [3] (setting [8]). Besides, the “J (flux)” value is on record as 6.46 × 10^-4 mg/cm^2 /sec in data set [3] (setting [9]) and 6.28 × 10^-4 mg/cm^2 /sec in data set [3] (setting [10]). The “E (enhancement)” value in data set [3] (setting [7]) is 103.09; in data set [3] (setting [8]), 149.23; in data set [3] (setting [9]), 100.94; in data set [3] (setting [10]), 67.38. Also, the “P (permeability)” value in data set [3] (setting [7]) was 3e-06 cm/s; in data set [3] (setting [8]), 3.88e-06 cm/s; in data set [3] (setting [9]), 3.23e-06 cm/s; in data set [3] (setting [10]), 3.14e-06 cm/s.

On to dioxolane [2% dioxolane], for which the “P (permeability)” value in data set [6] is 5.21e-09 cm/s.

B1: Sigma papain: papain from Sigma Chemical (protein, UniProt P00784 134-345, looked up)
Papain: IPEYVDWRQKGAVTPVKNQGSCGSCWAFSAVVTIEGIIKIRTGNLNEYSEQELLDCDRRSYGCNGGYPWSALQLVAQYGIHYRNTYPYEGVQRYCRSREKGPYAAKTDGVRQVQPYNEGALLYSIANQPVSVVLEAAGKDFQLYRGGIFVGPCGNKVDHAVAAVGYGPNYILIKNSWGTGWGENGYIRIKRGTGNSYGVCGLYTSSFYPVKN
In the case of B1, under setting [11], the “J (flux)” value is given as 6.87 × 10^-4 mg/cm^2 /sec and the “P (permeability)” value amounted to 8.5e-07 cm/s. Under setting [12], the “J (flux)” value is recorded as 1.46 × 10^-3 mg/cm^2 /sec and the “P (permeability)” value is 1.81e-06 cm/s.

B2: Allergan papain: papain contained in a contact lens cleaning product (tablets for dissolution in water) wherein activators are included (protein, UniProt P00784 134-345, looked up)
Papain: IPEYVDWRQKGAVTPVKNQGSCGSCWAFSAVVTIEGIIKIRTGNLNEYSEQELLDCDRRSYGCNGGYPWSALQLVAQYGIHYRNTYPYEGVQRYCRSREKGPYAAKTDGVRQVQPYNEGALLYSIANQPVSVVLEAAGKDFQLYRGGIFVGPCGNKVDHAVAAVGYGPNYILIKNSWGTGWGENGYIRIKRGTGNSYGVCGLYTSSFYPVKN
modifications: contact lens cleaning tablet with activators
With B2, under setting [13], the “J (flux)” value is on record as 1.04 × 10^-3 mg/cm^2 /sec and the “P (permeability)” value was 1.29e-06 cm/s.
